Key:
[1] = system: lactate dehydrogenase (LDH); test: Lactate dehydrogenase activity in detergent extracts; assay type: biochemical, human; conditions: 0.5% detergent; JEG-3 cell extracts; relative to Tx-100 (100%)
Experimental: (§1) FIG. 4 is a graphical depiction of the effect of detergent solubilization on enzyme activities. Enzyme activities were determined in the presence of 0.5% Tx-100, SDS, or CTAB as described in the Examples. The activities were expressed relative to that in Tx-100 solubilized samples (100%). […] Alkaline phosphatase and horseradish peroxidase were purchased from Sigma. Ca^2+ -ATPase activity was measured in microsomes prepared from day-17 chick chorioallantoic membrane, Oakley et al., Anal. Biochem., 105:361-363 (1980). NAD dependent isocitrate dehydrogenase (ICD) and lactate dehydrogenase (LDH) activities were measured in detergent extracts of JEG-3 human choriocarcinoma cells
(§2) Ca^2+ -ATPase activity was assayed by the method of Tuan and Knowles, J. Biol. Chem., 259:2754-2763 (1984), without further modification. Alkaline phosphatase, lactate dehydrogenase, and isocitrate dehydrogenase activities were measured using protocols supplied with their respective diagnostic kits.

[2] = system: horseradish peroxidase; test: Horseradish peroxidase activity after detergent solubilization; assay type: biochemical; conditions: 0.5% detergent; compared to SDS; relative to Tx-100 (100%)
Experimental: Spectrophotometric Assays. Peroxidase activity was assayed at room temperature using a solution of 0.5 mg/ml diaminobenzidine in 10 mM sodium phosphate buffered 0.9% saline (pH 7.2), containing 0.1% hydrogen peroxide. Reactions were allowed to proceed for 5 minutes, and then were stopped by the addition of 10 mM sodium sulfide to 100 μM. Absorbance at 480 nm was used to determine the degree of product formation.

[3] = system: NAD dependent isocitrate dehydrogenase (ICD); test: NAD dependent isocitrate dehydrogenase activity in detergent extracts; assay type: biochemical, human; conditions: 0.5% detergent; JEG-3 cell extracts; compared to SDS; relative to Tx-100 (100%)
Experimental: as §1, §2

[4] = system: Alkaline phosphatase; test: Alkaline phosphatase activity after detergent solubilization; assay type: biochemical; conditions: 0.5% detergent; compared to SDS; relative to Tx-100 (100%)
Experimental: as §1, §2

[5] = system: Ca2+-ATPase; test: Ca2+-ATPase activity in detergent-solubilized chorioallantoic membrane microsomes; assay type: biochemical; conditions: 0.5% detergent; day-17 chick CAM microsomes; relative to Tx-100 (100%)
Experimental: as §1, §2

[6] = system: enzyme activities of various proteins; test: Enzyme activities of detergent-treated samples after heating; assay type: biochemical; conditions: detergent treated samples heated to 100° C. in the presence of β-mercaptoethanol
Source text: Native protein activity was retained after solubilization in CTAB. Enzyme activities of various proteins in CTAB with their activities when solubilized in SDS, or Tx-100 were compared. […] The relative effect of detergent solubilization on native activity varied from protein to protein and, therefore, must be determined empirically.

[7] = α-NH2 group; cited from earlier work

Row | SMILES | Enzyme activity (LDH) in detergent [1] | Enzyme activity (HRP) in detergent [2] | Enzyme activity (ICD) in detergent [3] | Enzyme activity (AP) in detergent [4] | Enzyme activity (Ca2+-ATPase) in detergent [5] | Enzyme activity after heating [6] | pKa [7]
1 | CCCCCCCCCCCCCCCC[N+](C)(C)C.[Br-] [CTAB, Cetyltrimethylammonium bromide] | lack of activity | relatively high levels of enzyme activity | relatively high levels of enzyme activity | relatively high levels of enzyme activity | significantly affected | lost all activity | 
2 | CCCCCCCCCCCCOS(=O)(=O)[O-].[Na+] [SDS, sodium dodecylsulfate] |  |  |  |  |  | lost all activity | 
3 | NCCCC[C@H](N)C(=O)O [lysine] |  |  |  |  |  |  | ≈ 9.06
